In US9656963B2 (BRISTOL-MYERS SQUIBB COMPANY, priority 2012, dated 2017) one finds EC50 data, which are given here for 24 molecules.

Each structure is given as a SMILES string. pEC50: −log10 of the molar value.

The target of this test is T1, hGPR40 (Homo sapiens, UniProt O14842).
T1 construct: 3x FLAG; expressed in transfected cells
T1 sequence (O14842 whole entry): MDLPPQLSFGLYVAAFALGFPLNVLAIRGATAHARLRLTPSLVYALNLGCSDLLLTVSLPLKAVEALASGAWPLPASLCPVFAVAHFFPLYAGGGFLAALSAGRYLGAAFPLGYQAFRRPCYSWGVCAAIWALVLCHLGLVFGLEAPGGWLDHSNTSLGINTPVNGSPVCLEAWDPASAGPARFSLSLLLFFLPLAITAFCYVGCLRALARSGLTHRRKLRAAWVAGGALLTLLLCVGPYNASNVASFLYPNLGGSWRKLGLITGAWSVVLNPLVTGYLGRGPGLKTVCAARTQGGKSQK
Nature of the test: FDSS-Based Intracellular Calcium Assay. In kind it is cell-based. The settings on record: cells expressing GPR40, intracellular Ca2+ response. The procedure, abridged:
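Flag-tagged GPR40-expressing cells plated overnight in serum-free, phenol red-free DMEM. Compounds added from DMSO stocks, diluted in assay buffer and added as 3x solution. Intracellular Ca^2+ flux read by fluorescence on an FDSS reader.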
For orientation: Calcium flux is commonly read through the fluorescence of an indicator in the cells.
Consider `COc1ccc(F)c(-c2ncc(Cc3ccc(N4N=C(C(F)(F)F)[C@@H](C)[C@@H]4CC(=O)O)cc3)c(C)n2)c1` (single isomer, unassigned) [Example 63], for which the negative-log EC50 (pEC50) is 6.15.

As for `COc1ccc(F)c(-c2ccc(Cc3ccc(N4N=C(c5ccc(Cl)cc5)[C@@H](C)[C@@H]4CC(=O)O)cc3)c(C)c2)c1` (single isomer, unassigned) [Example 66, Isomer 1], the pEC50 was 7.89.

With `COc1ccc(F)c(-c2ccc(Cc3ccc(N4N=C(c5ccc(Cl)cc5)[C@@H](C)[C@@H]4CC(=O)O)cc3)c(C)c2)c1` (single isomer, unassigned) [Example 66, isomer 2], the negative-log EC50 (pEC50) is 6.29.

`COc1ccc(F)c(-c2ccc(Cc3ccc(N4N=C(c5ccc(F)cc5)[C@@H](C)[C@@H]4CC(=O)O)cc3)c(C)c2)c1` (single isomer, unassigned) [Example 67, isomer 1]: the pEC50 was 8.05.

For the molecule `COc1ccc(F)c(-c2ccc(Cc3ccc(N4N=C(c5ccc(F)cc5)[C@@H](C)[C@@H]4CC(=O)O)cc3)c(C)c2)c1` (single isomer, unassigned) [Example 67, isomer 2], the pEC50 is 6.10.

Take `COc1ccc(F)c(-c2ccc(Cc3ccc(N4N=C(c5cccc(Cl)c5)[C@@H](C)[C@@H]4CC(=O)O)cc3)c(C)c2)c1` (single isomer, unassigned) [Example 68, isomer 1]: the pEC50 is 7.82.

Consider `COc1ccc(F)c(-c2ccc(Cc3ccc(N4N=C(c5cccc(Cl)c5)[C@@H](C)[C@@H]4CC(=O)O)cc3)c(C)c2)c1` (single isomer, unassigned) [Example 68, isomer 2], for which the pEC50 was 5.07.

As to `COc1ccc(F)c(-c2ccc(Cc3ccc(N4N=C(c5cc(C)on5)[C@@H](C)[C@@H]4CC(=O)O)cc3)c(C)c2)c1` (single isomer, unassigned) [Example 69, isomer 1], the negative logarithm of the EC50 (pEC50) was 7.24.

On to `COc1ccc(F)c(-c2ccc(Cc3ccc(N4N=C(c5cc(C)on5)[C@@H](C)[C@@H]4CC(=O)O)cc3)c(C)c2)c1` (single isomer, unassigned) [Example 69, isomer 2], for which the pEC50 is 5.59.

`COc1ccc(F)c(-c2ccc(Cc3ccc(N4N=C(c5ccccn5)C(C)C4CC(=O)O)cc3)c(C)c2)c1` (single isomer, unassigned) [example 62, isomer 2, 2-(1-(4-((2′-fluoro-5′-methoxy-3-methylbiphenyl-4-yl)methyl)phenyl)-4-methyl-3-(pyridin-2-yl)-4,5-dihydro-1H-pyrazol-5-yl)acetic acid]: the pEC50 was 7.20.

Regarding `Cc1cc(-c2cc(O)ccc2F)ccc1Cc1ccc(N2N=C(C(F)(F)F)[C@@H](C)[C@@H]2CC(=O)O)cc1` [Example 56, 2-((4S,5S)-1-(4-((2′-fluoro-5′-hydroxy-3-methyl-[1,1′-biphenyl]-4-yl)methyl)phenyl)-4-methyl-3-(trifluoromethyl)-4,5-dihydro-1H-pyrazol-5-yl)acetic acid], the negative-log EC50 (pEC50) was 6.82.

Take `COc1ccc(F)c(-c2ccc(Cc3ccc(N4N=C(C(=O)O)[C@@H](C)[C@@H]4CC(=O)O)cc3)c(C)c2)c1` [Example 57, (4S,5S)-5-(carboxymethyl)-1-(4-((2′-fluoro-5′-methoxy-3-methyl-[1,1′-biphenyl]-4-yl)methyl)phenyl)-4-methyl-4,5-dihydro-1H-pyrazole-3-carboxylic acid]: the pEC50 is 5.18.

For the molecule `Cc1nc(-c2ccccc2)ncc1Cc1ccc(N2N=C(C(F)(F)F)[C@@H](C)[C@@H]2CC(=O)O)cc1` [Example 58, 2-((4S,5S)-4-methyl-1-(4-((4-methyl-2-phenylpyrimidin-5-yl)methyl)phenyl)-3-(trifluoromethyl)-4,5-dihydro-1H-pyrazol-5-yl)acetic acid], the negative-log EC50 (pEC50) is 5.37.

Consider `COc1ccc(F)c(-c2ncc(Cc3ccc(N4N=C(c5ccccc5)[C@@H](C)[C@@H]4CC(=O)O)cc3)c(C)n2)c1` [Example 64, 2-((4S,5S)-1-(4-((2-(2-fluoro-5-methoxyphenyl)-4-methylpyrimidin-5-yl)methyl)phenyl)-4-methyl-3-phenyl-4,5-dihydro-1H-pyrazol-5-yl)acetic acid], for which the pEC50 is 6.57.

For `COc1ccc(F)c(-c2cnc(Oc3ccc(N4N=C(C(F)(F)F)[C@@H](C)[C@@H]4CC(=O)O)cc3)nc2)c1` [Example 65, 2-((4S,5S)-1-(4-(5-(2-fluoro-5-methoxyphenyl)pyrimidin-2-yloxy)phenyl)-4-methyl-3-(trifluoromethyl)-4,5-dihydro-1H-pyrazol-5-yl)acetic acid], the pEC50 was 5.83.

As to `CCOc1ccc(F)c(-c2ccc(Cc3ccc(N4N=C(C(F)(F)F)[C@@H](C)[C@@H]4CC(=O)O)cc3)c(C)c2)c1` [Example 70, 2-((4S,5S)-1-(4-((5′-ethoxy-2′-fluoro-3-methyl-[1,1′-biphenyl]-4-yl)methyl)phenyl)-4-methyl-3-(trifluoromethyl)-4,5-dihydro-1H-pyrazol-5-yl)acetic acid], the pEC50 was 6.92.

With `C[C@@H]1C(C(F)(F)F)=NN(c2ccc(CCCc3ccccc3)cc2)[C@H]1CC(=O)O` [Example 71, 2-((4S,5S)-4-methyl-1-(4-(3-phenylpropyl)phenyl)-3-(trifluoromethyl)-4,5-dihydro-1H-pyrazol-5-yl)acetic acid], the pEC50 was 5.24.

As to `C[C@@H]1C(C(F)(F)F)=NN(c2ccc(CCCc3cccc(F)c3)cc2)[C@H]1CC(=O)O` [Example 72, 2-((4S,5S)-1-(4-(3-(3-fluorophenyl)propyl)phenyl)-4-methyl-3-(trifluoromethyl)-4,5-dihydro-1H-pyrazol-5-yl)acetic acid], the pEC50 was 5.15.

Regarding `COc1cccc(-c2ccc(Cc3ccc(N4N=C(C(F)(F)F)[C@@H](C)[C@@H]4CC(=O)O)cc3)c(C)c2)c1` [Example 73], the pEC50 was 7.43.

With `COc1cc(-c2ccc(Cc3ccc(N4N=C(C(F)(F)F)[C@@H](C)[C@@H]4CC(=O)O)cc3)c(C)c2)c(F)cn1` [Example 74, 2-((4S,5 S)-1-(4-(4-(5-fluoro-2-methoxypyridin-4-yl)-2-methylbenzyl)phenyl)-4-methyl-3-(trifluoromethyl)-4,5-dihydro-1H-pyrazol-5-yl)acetic acid], the pEC50 is 6.68.

`COc1cc(-c2ccc(Cc3ccc(N4N=C(C(F)(F)F)[C@@H](C)[C@@H]4CC(=O)O)cc3)c(C)c2)ccn1` [Example 75, 2-((4S,5S)-1-(4-(4-(2-methoxypyridin-4-yl)-2-methylbenzyl)phenyl)-4-methyl-3-(trifluoromethyl)-4,5-dihydro-1H-pyrazol-5-yl)acetic acid]: the pEC50 is 6.37.

Take `Cc1cc(-c2cnccn2)ccc1Cc1ccc(N2N=C(C(F)(F)F)[C@@H](C)[C@@H]2CC(=O)O)cc1` [Example 76, 2-((4S,5 S)-4-methyl-1-(4-(2-methyl-4-(pyrazin-2-yl)benzyl)phenyl)-3-(trifluoromethyl)-4,5-dihydro-1H-pyrazol-5-yl)acetic acid]: the pEC50 was 5.79.

On to `COc1ncccc1-c1ccc(Cc2ccc(N3N=C(C(F)(F)F)[C@@H](C)[C@@H]3CC(=O)O)cc2)c(C)c1` [Example 77, 2-((4S,5S)-1-(4-(4-(2-methoxypyridin-3-yl)-2-methylbenzyl)phenyl)-4-methyl-3-(trifluoromethyl)-4,5-dihydro-1H-pyrazol-5-yl)acetic acid], for which the negative-log EC50 (pEC50) is 5.27.

For the molecule `Cc1cc(-c2ccncc2)ccc1Cc1ccc(N2N=C(C(F)(F)F)[C@@H](C)[C@@H]2CC(=O)O)cc1` [Example 78, 2-((4S,5S)-4-methyl-1-(4-(2-methyl-4-(pyridin-4-yl)benzyl)phenyl)-3-(trifluoromethyl)-4,5-dihydro-1H-pyrazol-5-yl)acetic acid], the pEC50 was 5.08.

For orientation: pEC50 means the negative decadic logarithm of the EC50, by convention in mol/L.
